# Source: patent US20250034264A1, “REGULATING T CELL IMMUNE RESPONSE THROUGH IGF-I RECEPTOR (IGF-1R)” (The Regents of the University of Michigan, priority 2021, published 2025)
# How the values were obtained:
# [1] = test system: circulating CD3+CD4+ T cells; assay: Phase 2 TAO trial: INFγ and IL-17A in circulating T cells (flow cytometry); format: in vivo, human; conditions: TAO patients, 20 mg/Kg, 24-week treatment
# Method: Studies of circulating CD34^+ fibrocytes and T cells PBMCs from patients with active, moderate to severe TAO enrolled in a phase 2 trial for teprotumumab were cryopreserved immediately after collection. Venous blood sampling occurred at baseline and at week 24, following 8 infusions at 3 weekly intervals. The post-treatment sample was obtained 3 weeks after the final infusion of active drug or placebo. Samples were thawed and incubated with 10% knockout serum replacement medium for 1h and stained. Rinsed samples were subjected to FACS analysis with a Calibur flow cytometer (BD). Viable cells were gated on the basis of forward light scatter. All samples were analyzed using quadrant settings based on negative staining with isotype control antibodies. Mean fluorescent intensity (MFI) was calculated as the ratio of mean sample to isotype control fluorescence. Data were analyzed with FCS Express software (De Novo Software, Ontario, CA).
# fibrocytes and GD-OF = assay: BAFF expression and induction by bTSH; format: cell-based, human; conditions: teprotumumab 50 μg/ml or rhSlit2 50 ng/ml
# Method: FIGS. 12A-12F are graphs showing the effect of bTSH, teprotumumab, and Slit2 on B-cell activating factor (BAFF) expression in fibrocytes and GD-OF. In FIGS. 12A and 12B, cultures were treated for the graded intervals indicated along the abscissas with bTSH (5 mIU/mL). Cellular RNA was harvested and subjected to reverse transcription by RT-PCR (FIG. 12A). Values were normalized to their respective GAPDH levels Medium was assayed for BAFF levels with an ELISA (FIG. 12B). Values were normalized to respective monolayer protein content. Data are expressed as mean f SD of triplicate determinations; *, p<0.05; **, p<0.01; ***, p<0.001. In FIGS. 12C-12F, bTSH, teprotumumab (50 μg/ml) or recombinant human Slit2 (rhSlit2) (50 ng/ml) were added to culture media for the times indicated and analyzed for BAFF mRNA levels as in FIG. 12A. In FIGS. 12F, parental GD-OF strains were sorted into pure CD34^+ and CD34^− subsets. Subsets were then cultured for 48 h, the final 6 h in the absence or presence of bTSH. Data were expressed as mean f SD of triplicate independent determinations from a single experiment representative of three conducted. *, p<0.05; **, p<0.01
# IL-12, IL-23, IL-10, HA and BAFF ELISAs. Confluent cultures were treated with nothing or teprotumumab (50 μg/mL) for 5 d, without or with bTSH (5 mU/mL) for the intervals indicated or 72 h. […]
# [2] = test system: fibrocyte-adherent CD4+ T cells; assay: IL-17A and INFγ in fibrocyte-adherent CD4+ T cells (flow cytometry); format: cell-based, human
# Method: (§1) Invariably, a small population of tightly adherent T cells were found in the fibrocyte cultures, consistent with the previous findings. Culture viability was routinely verified to be >90%. CD4^+ T cells were enriched using the CD4 isolation cocktail (Cat #0.130-096-533, Miltenyi Biotec, San Diego, CA) followed by negative selection using a magnetic column (Cat #0.130-042-401) according to manufacturer's protocol. Fibrocytes and isolated T cells were cultured and remained untreated or were incubated with human IgG isotype control (5 μg/ml) or teprotumumab (50 μg/mL) for 7 to 9 days. Single cell suspensions were stained with anti-human CD4, CD3, CD34, MHC-2, CD80, CD86, and PD-L1 (BD Biosciences) for 30 min, rinsed and fixed with CytoPerm/CytoFix (BD). They were then stained with anti-human INFγ and IL-17A for 20 min, rinsed, and subjected to the flow cytometry analysis. Gated CD34^+CXCR4^+ fibrocytes and CD4^+CD3^+ T cells were analyzed using quadrant settings based on negative isotype staining.
# (§2) In vitro studies of CD34^+ fibrocytes and T cells PBMC and GD-OF monolayers were treated in vitro with human IgG isotype control (5 μg/ml), teprotumumab (50 μg/mL), H7 (5 μg/mL), linsitinib (1 μM), bTSH (5 mIU/mL), M22 (1 μg/mL), or IGF-1 (10 nM) for the intervals indicted in the figure legends in a 37° C., 5% CO2, humidified incubator until confluent. Brefeldin A (0.66 μl/ml), (Golgi Stop™, BD Biosciences), phorbol 12-myristate 13-acetate (PMA) (50 ng/ml) and ionomycin (1 μg/mL) were added for 5 h. Cells were rinsed with flow cytometry buffer (1×PBS, 0.5% BSA, 0.1% sodium azide) and stained with the relevant monoclonal antibodies.
# [3] = test system: fibrocyte/adherent T cell co-cultures; assay: IL-17A and INFγ released into culture medium (ELISA); format: cell-based, human; conditions: 50 μg/mL, day 9
# From the text: ELISAs Media were collected from cultures treated as indicated and analyzed for concentrations of […] and IL-17A using specific ELISA kits (R&D systems) according to the manufacture's protocol.
# [4] = test system: purified, isolated cultured CD3+CD4+ T cells; assay: IL-17A and INFγ in purified, isolated cultured T cells (flow cytometry); format: cell-based, human
# Method: as §1, §2
substance,measurement,setting,value
teprotumumab,reduction of IL-17A expression level in CD4+ T cells,[1],47%
same,reduction of INFγ expression level in CD4+ T cells,[1],41%
same,bTSH induction of BAFF,fibrocytes and GD-OF,attenuated
same,INFγ MFI,"[2]; 50 μg/mL, 9 d, control MFI 64.01±10.15",26.80±5.61
same,IL-17A MFI,"[2]; 50 μg/mL, 9 d, control isotype MFI 76.03±14.17",65.17±5.61
same,abundance of adherent CD3+CD4+ T cells,[2]; cultures from both donor cohorts,substantially reduced
same,reduction of IL-17A released into the culture media,[3],52%
same,reduction of INFγ released into the culture media,[3],54%
same,INFγ MFI,"[4]; 50 μg/mL, 9 d, control 10.23±0.99",10.32±0.89
same,IL-17A MFI,"[4]; 50 μg/mL, 9 d, control isotype MFI 12.69±0.19",12.69±0.31
same,"effect on cytokine (IL-17A, INFγ) expression levels",[4]; purified T cells without fibrocytes,no such effects
